Measurements published in patent US20150191484A1, “NOVEL COMPOUNDS HAVING A TETRACYCLIC IRIDOID SKELTON AND AN ANTI-TRYPANOSOMAL AGENT COMPRISING THE SAME AS AN ACTIVE INGREDIENT” (NATIONAL UNIVERSITY CORPORATION TOKYO MEDICAL AND DENTAL …, priority 2014, published 2015).

How the values were obtained:
[1] = test system: various human cells; assay: MTT cytotoxicity, panel of human cell lines (summary); format: cell-based; conditions: IC50 against human cells / IC50 against Trypanosoma
Source text: ML-2-3 has low cytotoxicity on mammalian cells. The cytotoxicity of ML-2-3 is very low compared to the cytotoxicity of ML-2-2. The cytotoxicity of ML-2-2 and ML-2-3 on mammalian cells can be compared as IC50 value. The usefulness of the compounds for a therapeutic agent for mammals including humans can be compared by a selectivity index (SI). For a compound to be accepted as a useful therapeutic agent for mammals means that the compound should have high anti-trypanosomal activity but low cytotoxicity on mammals. The selectivity index (SI) is represented by an equation: IC50 of cytotoxicity on mammalian cells/IC50 of anti-trypanosomal activity. In particular, it is represented by an equation: IC50 against human cells/IC50 against Trypanosoma such as Trypanosoma brucei. […] IC50 (μM) of ML-2-3 against HF-19 and HCT-15 is more than 50, which means that ML2-3 is non-toxic at the highest assayed dose in HF-19 and HCT-15. […]
The cytotoxic activity of natural products against mammalian cells is an important point in the search for active compounds with biological activity. […] The viabilities of cells were determined with the MTT (3-(4,5-dimethylthiazol-2-yl)-2-5-diphenyltetrazolium bromide) assay. The selectivity index (SI) was determined using the following equation: IC50 against human cells/IC50 against T. brucei. […]

[2] = test system: HCT-15 (colon cancer); assay: MTT cytotoxicity assay, HCT-15; format: cell-based, human
Method: (§1) The cytotoxic activity of natural products against mammalian cells is an important point in the search for active compounds with biological activity. […] In order to confirm the selective and potent anti-trypanosomal activity of ML-2-2 and ML-2-3, we examined their cytotoxicity in a panel of human cell lines including two human fibroblastic and 8 human cancer-derived cell lines. Cells were seeded in 96-well microplates and incubated with ML-2-2 and ML-2-3 for 48 h at 37° C. in a 5% CO2 humidified incubator. The viabilities of cells were determined with the MTT (3-(4,5-dimethylthiazol-2-yl)-2-5-diphenyltetrazolium bromide) assay. The selectivity index (SI) was determined using the following equation: IC50 against human cells/IC50 against T. brucei. The IC50 values of ML-2-3 were higher than those of ML-2-2 in all the cell lines examined. […] The SI of ML-2-2 indicates values below 1.00 in most cell lines. On the other hand, SI values of ML-2-3 were much higher than those of ML-2-2 in all tested cell lines.

[3] = MTT cytotoxicity assay, HCT-15; format: cell-based, human; conditions: human, HCT-15 colon cancer cells; HCT-15 colon cancer, 48 h, MTT
Method: as §1

[4] = test system: Trypanosoma cells; assay: Nexin apoptosis assay (FACS); format: cell-based, Trypanosoma brucei brucei
Method: (§2) The GUTat 3.1 strain of the bloodstream forms of T. b. brucei parasites was used for this study. Parasites were cultured in vitro according to the conditions established by Yabu et al, 1998.
(§3) Parasites were used when they reached a confluent concentration of 1×10^6 parasites/ml. Estimation of parasitemia was done with the Neubauer's counting chamber. Parasites were diluted to a concentration of 3×10^5 parasites/ml with HMI-9 medium and used for the various experiments.
This assay was performed to detect both Phosphatidylserine (PS) signal and fracture of nuclear membraneas markers of apoptosis. Seeding and incubation of parasites with plant materials (extracts, fractions and compounds) were done under the same conditions in Alamar Blue assay. […] The contents of the wells were then subjected to FACS analysis using, the Millipore guava easyCyte 5HT FACS machine for the sorting and estimation of apoptotic parasites according to the manufacturer's instructions.

[5] = test system: U937 (leukemia); assay: MTT cytotoxicity assay, U937; format: cell-based, human; conditions: IC50 against U937 / IC50 against T. brucei
Method: as §1

[6] = MTT cytotoxicity assay, U937; format: cell-based, human; conditions: human, U937 leukemia cells; U937 leukemia, 48 h, MTT
Method: as §1

[7] = MTT cytotoxicity assay, NB1RGB; format: cell-based, human; conditions: human, NB1RGB normal fibroblast cells; NB1RGB normal fibroblast, 48 h, MTT
Method: as §1

[8] = test system: NB1RGB (normal fibroblast); assay: MTT cytotoxicity assay, NB1RGB; format: cell-based, human; conditions: IC50 against NB1RGB / IC50 against T. brucei
Method: as §1

[9] = MTT cytotoxicity assay, LoVo; format: cell-based, human; conditions: human, LoVo colon cancer cells; LoVo colon cancer, 48 h, MTT
Method: as §1

[10] = test system: LoVo (colon cancer); assay: MTT cytotoxicity assay, LoVo; format: cell-based, human; conditions: IC50 against LoVo / IC50 against T. brucei
Method: as §1

[11] = test system: GUTat 3.1 strain of the bloodstream forms of T. b. brucei parasites; assay: Alamar Blue assay (trypanocidal activity); format: cell-based, Trypanosoma brucei brucei
Method: as §2, §3
The Alamar Blue assay was carried out in a 96-well plate. About 1.5×10^4 Parasites were seeded with varied concentrations of the Morinda lucida crude extract, ranging from as low as 0.78 μg/ml to as high as 200 μg/ml, in a ratio of 1:1 in 100 μl volume per well. Berberine, a compound known as anti-trypanocidal agent, was used as a positive control. […] The parasites were incubated with the plant extracts for 24 hours at 37° C. and under 5% CO2. After 24 hours, 10% Alamar Blue dye was added to each well and re-incubated for another 24 hours under the same conditions but in darkness. After a total of 48 hours, the plate was read for absorbance at 540 nm using the TECAN Sunrise Wako Spectrophotometer. An Absorbance-concentration (extract) curve was drawn and the IC50 value of the plant extract was extrapolated. Alamar Blue assay was also performed on the fractions and compounds purified from Morinda Lucida to determine their IC50 values. The IC50 values obtained were compared with that of the positive control and trypanocidal activity determined.

COc1cc(/C=C2/C(=O)O[C@]34C=C[C@@H]5C(C(=O)O)=CO[C@H](O[C@@H]23)[C@@H]54)ccc1O [ML-2-3, (3aS,4aR,4a^1S,7aS,9aS,3E)-3-(4-hydroxy-3-methoxybenzylidene)-2-oxo-2,3,3a,4a,4a^1,7a-hexahydro-1,4,5-trioxadicyclopenta[a,hi]indene-7-carboxylic acid]
selectivity index (SI), range over the human cell lines [1]: ≥ 3.2 to more than 13 | cytotoxicity (in words) ([2]; HCT-15, highest assayed dose): non-toxic at the highest assayed doses | SI (selectivity index) ([2]; IC50 against HCT-15 / IC50 against T. brucei): >13.33 | IC50 at 48 h [3]: > 50 µM | proportion of cells at early stage of apoptosis ([4]; 5 μM, 3 hours incubation): 2.5% | proportion of cells at early stage of apoptosis ([4]; 5 μM, 12 hours of incubation): about 10% | incubation time at which significant increase in proportion of late stage apoptotic cells was observed ([4]; 5 μM, time course 0, 3, 6, 9 and 12 hours): around 6 hours | induction of apoptosis ([4]; 6.25 μM, 24-hour incubation): induced strong apoptosis | early stage apoptotic cells ([4]; 6.25 μM, 24-hour incubation, negative control 0.2%): 7.8% | late stages apoptotic cells ([4]; 6.25 μM, 24-hour incubation, negative control none): 4.4% | induction of apoptosis in Trypanosoma cells ([4]; same concentration (6 μM)): strongly induced apoptosis | SI (selectivity index) [5]: 3.21 | IC50 at 48 h [6]: 12 µM | IC50 at 48 h [7]: 37.4 µM | SI (selectivity index) [8]: 9.96 | IC50 at 48 h [9]: 30.4 µM | SI (selectivity index) [10]: 8.10 | IC50 ([11]; T. b. brucei, Alamar Blue, 48 h, read-out: IC50 of anti-trypanosomal activity): 3.75 µM | inhibition of the growth of Trypanosoma brucei brucei (in words) ([11]; in vitro): the most potent in vitro activity
